Values quoted from earlier work, collected in patent publication US6589744B2, “Method and kit for identification for nucleic acid modification enzymes and inhibitors thereof” (Syngenta Participations AG, priority 2001, dated 2003).

Molecular target: T1, T4 DNA ligase (Enterobacteria phage T4, UniProt P00970)
T1 sequence (P00970 1-487): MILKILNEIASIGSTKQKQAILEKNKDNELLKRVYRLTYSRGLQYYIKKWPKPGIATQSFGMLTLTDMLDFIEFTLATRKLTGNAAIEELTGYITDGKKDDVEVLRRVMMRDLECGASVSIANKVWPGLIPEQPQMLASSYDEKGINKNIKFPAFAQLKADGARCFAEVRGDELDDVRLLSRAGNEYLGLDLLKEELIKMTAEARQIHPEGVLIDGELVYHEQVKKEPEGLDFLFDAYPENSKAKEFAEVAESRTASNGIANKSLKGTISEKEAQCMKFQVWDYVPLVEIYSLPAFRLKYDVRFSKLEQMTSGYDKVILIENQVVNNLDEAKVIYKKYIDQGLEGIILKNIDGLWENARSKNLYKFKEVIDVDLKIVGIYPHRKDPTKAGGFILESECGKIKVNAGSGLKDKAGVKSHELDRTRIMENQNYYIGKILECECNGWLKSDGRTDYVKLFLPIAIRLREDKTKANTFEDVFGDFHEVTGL
Conditions: previously determined, radiolabeled substrates and PAGE gel shift assays (Montecucco et al.)

- IC50: 2700 nM
SMILES: COc1cccc2c1C(=O)c1c(O)c3c(c(O)c1C2=O)C[C@@](O)(C(=O)CO)C[C@@H]3O[C@H]1C[C@H](N)[C@@H](O)[C@H](C)O1 [Epirubicin, epirubicin]
